Reference: patent US20230181485A1, “Uses and Formulations of Cannabinoids” (priority 2020, published 2023)
Like-named read-outs stand apart in the source and are kept apart here.

Assays:
IL-6 receptor = molecular target: T1, IL-6 receptor (Homo sapiens, UniProt P08887); settings: preliminary clinical data; cited from earlier work
T1 construct: host or cells: patients (in vivo)

[1] = system: SARS-CoV-2 virus (isolate BetaCoV/Germany/BavPat1/2020 p. 1); experiment: antiviral assay, Vero E6 cells with SARS-CoV-2, focus forming units; format: cell-based; settings: 24 h
[2] = systemic exposure after i.p. and oral application in mice and rats (Deiana et al.); format: in vivo; settings: 20 mg/kg, assuming dose-proportional plasma concentrations
Procedure: A comparative investigation for systemic exposure after i.p. and oral application of CBD in mice and rats has shown that 120 mg/kg as a single dose leads to a maximum plasma concentration of 14,000 ng/ml in mice (S. Deiana et al. (2012). Plasma and brain pharmacokinetic profile of cannabidiol (CBD), cannabidivarine (CBDV), Delta(9)-tetrahydrocannabivarin (THCV) and cannabigerol (CBG) in rats and mice following oral and intraperitoneal administration and CBD action on obsessive-compulsive behaviour. Psychopharmacology (Berl) 219(3): 859-73).

[3] = cited from earlier work
[4] = mice; 120 mg/kg single dose; cited from earlier work
IL-6 secretion = settings: majority of cellular models; cited from earlier work
[5] = system: LPS-induced acute lung injury; settings: cited from earlier work
[6] = system: LPS-induced acute lung injury; settings: 20 mg/kg, 6 h after LPS; cited from earlier work
human mononuclear cells = settings: nanomolar or micromolar concentrations; cited from earlier work
human neutrophils = settings: cited from earlier work
[7] = system: CD83 dendritic cell activation marker; settings: dendritic cells from individuals with HIV infection; cited from earlier work
microglial cells = settings: 1-16 μmol/l; cited from earlier work
[8] = system: chemically induced acute hepatitis; settings: 25 mg/kg; cited from earlier work
[9] = system: activated memory T cell line; settings: 1-5 μmol/l, cited from earlier work
[10] = system: ischemia-reperfusion-induced kidney injury; settings: 10 mg/kg after induced kidney injury; cited from earlier work
[11] = healthy rats, cited from earlier work

T1 sequence (P08887 20-468): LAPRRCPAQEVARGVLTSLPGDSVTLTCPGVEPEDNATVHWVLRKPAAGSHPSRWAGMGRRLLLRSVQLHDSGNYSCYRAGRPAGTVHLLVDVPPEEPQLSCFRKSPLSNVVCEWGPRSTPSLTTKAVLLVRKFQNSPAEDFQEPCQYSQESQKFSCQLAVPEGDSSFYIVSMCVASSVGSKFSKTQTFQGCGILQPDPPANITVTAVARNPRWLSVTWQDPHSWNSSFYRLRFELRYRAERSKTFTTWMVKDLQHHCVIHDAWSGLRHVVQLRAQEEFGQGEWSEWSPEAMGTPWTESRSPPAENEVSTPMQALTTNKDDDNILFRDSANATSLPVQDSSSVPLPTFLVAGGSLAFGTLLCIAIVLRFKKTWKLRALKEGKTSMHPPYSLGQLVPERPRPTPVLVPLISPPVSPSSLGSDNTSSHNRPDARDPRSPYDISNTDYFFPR

Compound: tocilizumab: humanized monoclonal antibody against the IL-6 receptor
- clinical effect in patients with severe SARS-CoV-2 pneumonia (IL-6 receptor): beneficial effects

Compound: C=C(C)[C@@H]1CCC(C)=C[C@H]1c1c(O)cc(CCCCC)cc1O [CBD, 2-[(1R,6R)-3-methyl-6-(1-methylethenyl)-2-cyclohexen-1-yl]-5-pentyl-1,3-benzenediol]
- FFU values (viral activity of SARS-CoV-2 in vitro) ([1]; 0.25-5 μM): reduce the FFU values in a dose dependent manner
- IC50 ([1]; Severe acute respiratory syndrome coronavirus 2, Vero C1008, Vero E6 cells, 5 μM values excluded, read-out: IC50 of inhibition of viral activity): 789 nM
- target peak exposure [2]: 2,300 ng/ml
- log P [3]: about 6.1
- maximum plasma concentration [4]: 14,000 ng/ml
- effective concentration for suppressive effect on IL-6 secretion (IL-6 secretion): ~5 µM
- number of leukocytes including macrophages and neutrophils in bronchoalveolar lavage fluid ([5]; 20 mg/kg, mice after LPS-induced lung inflammation): decreases
- total leukocytes migration, myeloperoxidase activity, pro-inflammatory cytokine production including TNF-α and IL-6 and vascular permeability ([5]; 0.3-80 mg/kg intraperitoneal, 60 minutes before LPS instillation): significantly decreased
- dose at which effects reached a nearly maximum extent ([5]; prophylactic application, intraperitoneal): 20 mg/kg
- mechanical lung function, leukocyte migration, myeloperoxidase activity, vascular permeability, cytokines/chemokines [6]: improved mechanical lung function
- release of pro-inflammatory cytokines (human mononuclear cells): suppressed
- migration of human neutrophils (human neutrophils): inhibits
- CD83 dendritic cell activation marker [7]: suppresses
- apoptosis in microglial cells (microglial cells): induces apoptosis
- expression of MDSCs [8]: induces
- pro-inflammatory cytokines such as IL-2, TNF-α, and IL-6 [8]: reduction
- autoantigen-specific Th17 cell phenotype (IL-17) ([9]; dose-dependently): reduced
- IL-6 production and secretion [9]: decreased
- production of IL-10 [9]: increased
- effect on induced kidney injury (Treg17/Th17 levels) [10]: renoprotective
- numbers of NK cells and NKT cells ([11]; 2.5 mg/kg per day): increased
- numbers of NK cells and NKT cells ([11]; 5 mg/kg per day): not affected
- number of T cells including T helper cells and cytotoxic T cells and of B cells ([11]; daily 5 mg/kg): significantly reduced
